Consider eight molecules from article PMC7101422, “N-Phenethyl Substitution in 14-Methoxy-N-methylmorphinan-6-ones Turns Selective µ Opioid Receptor Ligands into Dual µ/δ Opioid Receptor Agonists” (Scientific Reports, 2020).

Structures are written as SMILES. Like-named read-outs stand apart in the source and are kept apart here. Marks after values point to notes of the source that are not given here.

For data set [1], the target named is T1, human µOR (Homo sapiens, UniProt P35372).
T1 construct: host or cells: CHO cells (CHO-hµOR; CHO-hµOR-p22F for the cAMP assay)
T1 sequence (P35372 whole entry): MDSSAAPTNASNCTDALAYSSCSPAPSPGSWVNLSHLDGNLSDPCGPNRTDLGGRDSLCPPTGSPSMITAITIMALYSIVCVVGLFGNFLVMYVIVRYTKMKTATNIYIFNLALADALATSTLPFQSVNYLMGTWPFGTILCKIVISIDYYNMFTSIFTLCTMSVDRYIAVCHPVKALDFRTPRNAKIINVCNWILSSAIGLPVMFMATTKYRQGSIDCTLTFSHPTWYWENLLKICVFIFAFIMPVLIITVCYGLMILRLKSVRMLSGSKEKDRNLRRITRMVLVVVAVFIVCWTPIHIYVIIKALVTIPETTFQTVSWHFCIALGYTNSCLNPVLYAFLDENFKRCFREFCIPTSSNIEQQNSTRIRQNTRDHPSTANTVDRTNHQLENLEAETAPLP
Nature of the data set: biochemical. The format is binding.

The target in data set [2] is T2, human δOR (Homo sapiens, UniProt P41143).
T2 construct: host or cells: CHO cells (CHO-hδOR; CHO-hδOR-p22F for the cAMP assay)
T2 sequence (P41143 whole entry): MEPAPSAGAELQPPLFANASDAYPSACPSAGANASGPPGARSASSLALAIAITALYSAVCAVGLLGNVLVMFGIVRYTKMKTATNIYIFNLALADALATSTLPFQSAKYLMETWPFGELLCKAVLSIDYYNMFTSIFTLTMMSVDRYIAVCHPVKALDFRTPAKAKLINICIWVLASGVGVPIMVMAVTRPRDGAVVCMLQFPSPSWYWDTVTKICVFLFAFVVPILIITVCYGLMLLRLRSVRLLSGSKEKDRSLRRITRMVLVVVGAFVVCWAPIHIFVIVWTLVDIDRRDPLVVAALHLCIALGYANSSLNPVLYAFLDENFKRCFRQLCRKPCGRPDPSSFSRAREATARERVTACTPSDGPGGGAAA
Nature of the data set: Competition binding assay, CHO-hδOR cell membranes ([3H]Diprenorphine).

Data set [3] has as its system mice. Briefly: Radiant heat tail-flick test in mice. The format is in vivo. The conditions noted are these: Mus musculus, sc, 0.5 h, s.c., at 30 min (peak effect), n = 5–6 mice per group, read-out: ED50 (95% CL).
The target of data set [4] is T1, human µOR. Nature of the data set: [35S]GTPγS binding assay, CHO-hµOR membranes. Type of data set: biochemical. The note with it: for µOR % stim.: [35S]GTPγS binding, relative to DAMGO.
Data set [5] addresses T2, human δOR. Nature of the data set: [35S]GTPγS binding assay, CHO-hδOR membranes. The note with it: for δOR % stim. / fold higher δOR agonist potency vs. N-methyl counterpart: [35S]GTPγS binding; for δOR % stim.: relative to DPDPE; for fold higher δOR agonist potency vs. N-methyl counterpart: vs. 14-OMO (3) and 14-MM (4). Type of data set: biochemical.
Data set [6] addresses T2, human δOR. Briefly: Forskolin-induced cAMP accumulation assay, CHO-hδOR-p22F cells. Type of data set: cell-based. The note with it: for Emax: read-out: δOR % stim.
The target of data set [7] is T3, human κOR (Homo sapiens, UniProt P41145).
T3 construct: host or cells: CHO cells (CHO-hκOR)
T3 sequence (P41145 whole entry): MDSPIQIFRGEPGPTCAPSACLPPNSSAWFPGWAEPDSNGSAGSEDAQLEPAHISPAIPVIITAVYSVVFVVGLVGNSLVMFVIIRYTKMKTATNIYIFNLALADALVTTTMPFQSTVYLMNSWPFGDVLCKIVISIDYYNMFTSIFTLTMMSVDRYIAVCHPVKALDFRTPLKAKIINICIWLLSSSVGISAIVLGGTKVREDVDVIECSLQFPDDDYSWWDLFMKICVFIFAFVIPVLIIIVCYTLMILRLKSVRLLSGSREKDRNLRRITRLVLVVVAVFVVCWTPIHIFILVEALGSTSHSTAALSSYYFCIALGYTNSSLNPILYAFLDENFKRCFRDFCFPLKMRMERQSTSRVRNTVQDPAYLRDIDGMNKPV
Briefly: biochemical. The format is binding.

Data set [8] concerns the target T1, human µOR. Nature of the data set: cell-based. The format is cell-based. The note with it: for Emax: read-out: µOR % stim.
Data set [9] addresses T3, human κOR. Briefly: [35S]GTPγS binding assay, CHO-hκOR membranes. Type of data set: biochemical. The conditions noted are these: for κOR % stim.: [35S]GTPγS binding, relative to U69,593. Background: GTPγS resists hydrolysis and so accumulates on activated G proteins.
Data set [10] deals with mice. Nature of the data set: Rotarod assay in mice. The format is in vivo. The conditions noted are these: 30 min after s.c. administration, doses equivalent to a 3- to 4-fold the antinociceptive ED50 dose. (In general: Falling from the rotarod earlier than controls is read as motor impairment.)
Data set [11] relates to mice. The note with it: s.c., cited from earlier work; for ED50 (95% CL): tail-flick, at 30 min (peak effect).
The target in data set [12] is T1, human µOR. The note with it: cited from earlier work.
The subject of data set [13] is mice. The conditions noted are these: hot-plate test, s.c.; cited from earlier work.
For data set [14], the target named is T3, human κOR. The note with it: cited from earlier work.
For data set [15], the target named is T2, human δOR. The conditions noted are these: [35S]GTPγS binding; relative to DPDPE; cited from earlier work.

One may read the Ki as the equilibrium dissociation constant of an inhibitor or competing ligand from its target. As usually defined, the ED50 is the midpoint of the dose-response relation. Broadly, the EC50 is the concentration giving half of the maximal effect. The melting point is the temperature, or range, at which the solid turns liquid.

As for `CO[C@@]12CCC(=O)[C@]3(C)Oc4c(O)ccc5c4[C@@]31CCN(C)[C@@H]2C5` [14-MM (4), 14-methoxymetopon, reference compound], the “Ki ratio δOR/µOR” value in data set [1] is reported as 74. In data set [1], the “Ki ratio κOR/µOR” value is given as 51. The results for the Ki in [1] (read-out: Ki µOR), in [2] and in data set [7] were 0.25 ± 0.04 nM, 18.6 ± 0.98 nM and 12.8 ± 1.5 nM, respectively. In addition, the ED50 in data set [3] came out at 0.024 mg/kg. For the same molecule, the EC50 in data set [4] is 2.66 ± 0.58 nM; in [5], 36.8 ± 12.4 nM; in [6], 4.06 ± 0.89 nM; in data set [8] it was 0.31 ± 0.07 nM; in [9], 181 ± 9 nM. Besides, the µOR % stim. in data set [4] was determined as 99 ± 5%. Also, in [5], the δOR % stim. was 100 ± 9%. For the same molecule, the Emax in data set [6] is 99 ± 8%; in [8], 93 ± 5%. The molecule also came in with a κOR % stim. in data set [9] of 68.9 ± 9.2%.
With `CO[C@@]12CCC(=O)[C@@H]3Oc4c(O)ccc5c4[C@@]31CCN(CCc1ccccc1)[C@@H]2C5` [Compound 3a, 4,5α-Epoxy-3-hydroxy-14-methoxy-N-phenethylmorphinan-6-one], the melting point is 180 to 182 °C. Besides, in data set [1], the Ki was found to be 0.19 ± 0.02 nM, the “Ki ratio δOR/µOR” value amounted to 9.5 and the “Ki ratio κOR/µOR” value is 83. In data set [10], the “effect on motor coordination (rotarod performance)” value (“effect on motor coordination” below) was “lack of the mixed µ/δOR agonists 3a and 4a to induce motor dysfunction”. This molecule also came in with a Ki in data set [2] of 1.81 ± 0.68 nM. The ED50 in data set [3] came out at 0.014 mg/kg. In data set [4], this molecule returned an EC50 of 1.26 ± 0.63 nM and a µOR % stim. of 98 ± 10%. Further, in [5], the EC50 was 9.34 ± 0.6 nM, the δOR % stim. came to 107 ± 5% and the “fold higher δOR agonist potency vs. N-methyl counterpart” value was 4 fold. Also, in data set [6], the midpoint of the response, the EC50, lay at 0.6 ± 0.07 nM and the Emax is 93 ± 2%. In addition, the Ki in data set [7] amounted to 15.8 ± 8.8 nM. Besides, in data set [8], it took 0.078 ± 0.004 nM to reach a half-maximal effect (EC50) and the Emax came to 88 ± 12%. Moreover, in [9], the EC50 was found to be 144 ± 9 nM and the κOR % stim. is reported as 35.4 ± 7.5 %.
For the molecule `Oc1ccc2c3c1O[C@H]1[C@@H](O)C=C[C@H]4[C@@H](C2)N(CCc2ccccc2)CC[C@@]341` [Compound 1a], in data set [11] (tail-flick test), the “fold higher antinociceptive potency vs. N-methyl parent” value is on record as 28 fold. The “ED50 (95% CL)” value in data set [11] is recorded as 0.11 (0.027–0.40)^b mg/kg. For the same molecule, in data set [1], the Ki was 0.25 ± 0.09 nM, the “Ki ratio δOR/µOR” value is given as 98, the “Ki ratio κOR/µOR” value was determined as 374 and the “fold increased affinity at the human µOR vs. N-methyl parent” value is “ca. 13 fold”. Also, the “effect on motor coordination” value in data set [10] is “did not affect the evoked locomotor activity of mice”. This molecule also gave a Ki in data set [2] of 24.5 ± 8.7 nM. Moreover, in [12], the “fold increase in µOR agonist potency vs. N-methyl parent” value is reported as 2- to 3 fold and the µOR % stim. is recorded as 113 ± 8^b %. In data set [13], the “fold more effective than morphine (antinociception)” value is given as 22 fold. For the same molecule, in data set [6], the EC50 was 315 ± 110 nM and the Emax is 105 ± 8%. Further, in data set [14], the κOR % stim. is 19 ± 2^b*** %. This molecule gave a Ki in data set [7] of 93.5 ± 2.9 nM. Besides, in data set [8], the concentration giving a half-maximal response (EC50) was found to be 2.87 ± 0.91 nM, the “fold enhanced µOR agonist potency vs. N-methyl parent” value is recorded as 4- to 5 fold and the Emax turned out to be 107 ± 5%. Also, the δOR % stim. in data set [15] was 138 ± 17^b %.
Consider `O=C1CC[C@@]2(O)[C@H]3Cc4ccc(O)c5c4[C@@]2(CCN3CCc2ccccc2)[C@H]1O5` [Compound 2a], for which the “ED50 (95% CL)” value in data set [11] was 0.15 (0.058–0.40)^b mg/kg. Besides, the “effect on motor coordination” value in data set [10] is listed as “did not affect the evoked locomotor activity of mice”.
Take `CO[C@@]12CCC(=O)[C@@H]3Oc4c(O)ccc5c4[C@@]31CCN(C)[C@@H]2C5` [14-OMO (3), 14-O-methyloxymorphone, reference compound]: in data set [1], the affinity corresponds to a Ki of 0.27 ± 0.09 nM, the “Ki ratio δOR/µOR” value was 34 and the “Ki ratio κOR/µOR” value came to 38. The same molecule showed an inhibition constant (Ki) in [2] of 9.08 ± 0.31 nM. In data set [3], the ED50 is 0.014 mg/kg. In data set [4], this molecule displayed an EC50 of 1.21 ± 0.48 nM and a µOR % stim. of 95 ± 5%. In addition, in data set [5], the EC50 worked out at 38.5 ± 6.9 nM and the δOR % stim. came to 102 ± 4%. Further, in data set [6], it took 5.42 ± 0.93 nM to reach a half-maximal effect (EC50) and the Emax was 98 ± 3%. The molecule further came in with a Ki in [7] of 10.3 ± 1.8 nM. For the same molecule, in [8], the EC50 came out at 0.19 ± 0.14 nM and the Emax amounted to 90 ± 8%. In data set [9], this molecule gave an EC50 of 135 ± 29 nM and a κOR % stim. of 65.9 ± 6.5%.
Turning to `CN1CC[C@]23c4c5ccc(O)c4O[C@H]2[C@@H](O)C=C[C@H]3[C@H]1C5` [Morphine (1), Morphine, reference compound], the “effect on motor coordination” value in data set [10] is given as “caused a significant deficit in rotarod performance”.
With `CO[C@@]12CCC(=O)[C@]3(C)Oc4c(O)ccc5c4[C@@]31CCN(CCc1ccccc1)[C@@H]2C5` [Compound 4a, 4,5α-Epoxy-3-hydroxy-14-methoxy-5-methyl-N-phenethylmorphinan-6-one], the melting point fell in the range of 179 to 180 °C. Further, in [1], the Ki worked out at 0.24 ± 0.03 nM, the “Ki ratio δOR/µOR” value is given as 6.0 and the “Ki ratio κOR/µOR” value is 147. In addition, the “effect on motor coordination” value in data set [10] is “lack of the mixed µ/δOR agonists 3a and 4a to induce motor dysfunction”. Also, the Ki in data set [2] amounted to 1.45 ± 0.31 nM. The ED50 in [3] was found to be 0.024 mg/kg. In data set [4], this molecule showed an EC50 of 1.86 ± 0.84 nM and a µOR % stim. of 102 ± 13%. Further, in data set [5], the EC50 is 9.54 ± 2.33 nM, the δOR % stim. is 103 ± 2% and the “fold higher δOR agonist potency vs. N-methyl counterpart” value was 4 fold. Besides, in [6], the EC50 was found to be 0.55 ± 0.16 nM and the Emax was found to be 96 ± 4%. Moreover, in data set [7], the Ki is 35.3 ± 5.5 nM and the “fold decrease in κOR affinity vs. N-methyl parent” value is recorded as “ca. 3 fold”. In data set [8], the EC50 came to 0.15 ± 0.07 nM and the Emax amounted to 98 ± 12%. Moreover, in data set [9], the response was half-maximal at 334 ± 114 nM (EC50) and the κOR % stim. was 51.3 ± 10.4%.
Consider `CN1CC[C@]23c4c5ccc(O)c4O[C@H]2C(=O)CC[C@@]3(O)[C@H]1C5` [Oxymorphone (2), oxymorphone, reference compound], for which the “ED50 (95% CL)” value in data set [11] is given as 0.35 (0.16–0.77)^b mg/kg. In addition, the “effect on motor coordination” value in data set [10] is on record as “caused a significant deficit in rotarod performance”.
